We go through seven compounds from US20170304388A1, “NEW INDICATION OF CARDIOVASCULAR DRUGS FOR PREPARATION OF CANCER INHIBITION PHARMACEUTICAL COMPOSITION” (LAUNX BIOMEDICAL CO., LTD., priority 2014, published 2017).

SMILES strings stand for the structures. Counter-ions that a name gives are not always drawn. Like-named read-outs stand apart in the source and are kept apart here.

Common to all, as to type: cell-based
In experiment [1] the test system is HCT116 (Colorectal Carcinoma). Nature of the experiment: Cell viability analysis (WST-1), HCT116. Conditions: Homo sapiens, WST-1, OD450 nm, read-out: survival rate (viability) of cancer cells, HCT116 (WT). For orientation: Formazan colour is commonly taken as a measure of viable cells.
Experiment [2] concerns HL-60 (Acute Promyelocytic Leukemia). The experiment is described as follows: Cell viability analysis (WST-1), HL-60. Conditions: Homo sapiens, HL-60; Table 3; drug 10 μM, 72 hours, WST-1, OD450 nm; read-out: survival rate (viability) of cancer cells, HL-60.
In experiment [3] the test system is A375 (Amelanotic Melanoma). Nature of the experiment: Cell viability analysis (WST-1), A375. To be noted: Homo sapiens, WST-1, OD450 nm, lower viability = better inhibition, read-out: survival rate (viability) of cancer cells, A375.
The subject of experiment [4] is A549 (Lung Adenocarcinoma). The experiment is described as follows: Cell viability analysis (WST-1), A549. Conditions: Homo sapiens, WST-1, OD450 nm, read-out: survival rate (viability) of cancer cells, A549.
In experiment [5] the test system is HeLa (Cervix Adenocarcinoma). The experiment is described as follows: Cell viability analysis (WST-1), HeLa. Conditions: Homo sapiens, HeLa, WST-1, OD450 nm, read-out: survival rate (viability) of cancer cells, HeLa.
Another experiment has as its system cancer cell lines. The experiment is described as follows: Growth inhibitory effects on the panel of cancer cell lines. Conditions: drug 10 μM, 72 hours; for Numbers of inhibitory effect on cancer cell line: count of cancer cell lines inhibited; for inhibition effect on different cancer cell lines (in words): WST-1.
The test system of experiment [6] is AGS (Gastric Adenocarcinoma). Nature of the experiment: Cell viability analysis (WST-1), AGS. Conditions: WST-1, OD450 nm, read-out: survival rate (viability) of cancer cells, AGS.
The test system of experiment [7] is TSGH-8301 (Urinary Bladder Carcinoma). Nature of the experiment: Cell viability analysis (WST-1), TSGH-8301. Conditions: WST-1, OD450 nm, read-out: survival rate (viability) of cancer cells, TSGH.
In experiment [8] the test system is LoVo (Colorectal Adenocarcinoma). The experiment is described as follows: Cell viability analysis (WST-1), LoVo. To be noted: Homo sapiens, LoVo, WST-1, OD450 nm, read-out: survival rate (viability) of cancer cells, LoVo.
Experiment [9] relates to H1650 (Lung Adenocarcinoma). The experiment is described as follows: Cell viability analysis (WST-1), H1650. Conditions: Homo sapiens, WST-1, OD450 nm, read-out: survival rate (viability) of cancer cells, H1650.
In experiment [10] the test system is MCF7 (Mammary Gland, Adenocarcinoma). The experiment is described as follows: Cell viability analysis (WST-1), MCF7. To be noted: Homo sapiens, WST-1, OD450 nm, read-out: survival rate (viability) of cancer cells, MCF7.
The subject of experiment [11] is HepG2 (Hepatocellular Carcinoma). The experiment is described as follows: Cell viability analysis (WST-1), HepG2. To be noted: Homo sapiens, WST-1, OD450 nm, read-out: survival rate (viability) of cancer cells, HepG2.
Experiment [12] deals with MKN-45 (Gastric Adenocarcinoma). Nature of the experiment: Cell viability analysis (WST-1), MKN-45. Conditions: Homo sapiens, WST-1, OD450 nm, read-out: survival rate (viability) of cancer cells, MKN-45.
The test system of experiment [13] is PC3 (Prostate Adenocarcinoma). The experiment is described as follows: Cell viability analysis (WST-1), PC3. Conditions: WST-1, OD450 nm, read-out: survival rate (viability) of cancer cells, PC3.
Setting [14] is: HCT-116, 72 h, Table 3, drug 10 μM.
The mark [15] stands for this setting: A-375, 72 h, Table 3, drug 10 μM.
[16] abbreviates: A549, 72 h, Table 3, drug 10 μM.
Where [17] appears, read: NCI-H1650, 72 h, Table 3, drug 10 μM.
Where [18] appears, read: MCF7, 72 h, Table 3, drug 10 μM.
Setting [19] is: HepG2, 72 h, Table 3, drug 10 μM.
[20] abbreviates: MKN-45, 72 h, Table 3, drug 10 μM.

By viability is commonly meant a read-out of living cells in per cent, often relative to untreated cells.

For the compound `Cc1c(OCC(F)(F)F)ccnc1C[S@@+]([O-])c1nc2ccccc2[nH]1` [Dexlansoprazole], the viability at 10 µM amounted to 82.8% in experiment [1] (setting [14]); 72.2% in experiment [2]; 75.1% in [3] (setting [15]); 74.5% in experiment [4] (setting [16]); 105% in experiment [5] (72 h, Table 3, drug 10 μM); 89.8% in experiment [6] (72 h, Table 3, drug 10 μM). The viability at 10 µM in [7] (72 h, Table 3, drug 10 μM) was 84.9%; in experiment [8] (72 h, Table 3, drug 10 μM), 102%; in experiment [9] (setting [17]), 69.6%; in experiment [10] (setting [18]) it was 72.1%; in experiment [11] (setting [19]) it was 120%; in experiment [12] (setting [20]) it was 85.8%. Further, the viability at 10 µM in [13] (72 h, Table 3, drug 10 μM) was 104%. For the same compound, the “Numbers of inhibitory effect on cancer cell line” value (from here on “Numbers of inhibitory effect”) in the experiment on cancer cell lines is 0. Also, the “inhibition effect on different cancer cell lines (in words)” value with cancer cell lines is “significant inhibition effect”.

Take `Clc1ccccc1CN1CCc2sccc2C1` [Ticlopidine HCl]: the viability at 10 µM was found to be 71.9% in [1] (setting [14]); 102% in experiment [2]; 86.5% in experiment [3] (setting [15]); 84.9% in experiment [4] (setting [16]); 81.9% in [5] (72 h, Table 3, drug 10 μM); 77.2% in experiment [6] (72 h, Table 3, drug 10 μM). The viability at 10 µM in experiment [7] (72 h, Table 3, drug 10 μM) amounted to 112%; in experiment [8] (72 h, Table 3, drug 10 μM), 90.5%; in experiment [9] (setting [17]), 61.6%; in experiment [10] (setting [18]), 96.8%; in experiment [11] (setting [19]), 97.4%; in experiment [12] (setting [20]), 72.7%. In experiment [13] (72 h, Table 3, drug 10 μM), the viability at 10 µM stood at 69.9%. Further, the “Numbers of inhibitory effect” value in the experiment with cancer cell lines was found to be 0. For the same compound, the “inhibition effect on different cancer cell lines (in words)” value in the experiment on cancer cell lines is on record as “significant inhibition effect”.

With `Cc1cnc(C(=O)O)c[n+]1[O-]` [Acipimox], the viability at 10 µM in experiment [1] (setting [14]) is 79.4%; in experiment [2], 102%; in [3] (setting [15]), 124%; in [4] (setting [16]), 108%; in experiment [5] (72 h, Table 3, drug 10 μM), 87.6%; in experiment [6] (72 h, Table 3, drug 10 μM) it was 87.5%. Further, the viability at 10 µM in experiment [7] (72 h, Table 3, drug 10 μM) came out at 99.8%; in [8] (72 h, Table 3, drug 10 μM) it was 77.4%; in [9] (setting [17]), 89.6%; in experiment [10] (setting [18]), 75.8%; in experiment [11] (setting [19]) it was 99.8%; in experiment [12] (setting [20]), 80.2%. In [13] (72 h, Table 3, drug 10 μM), the viability at 10 µM was found to be 94.5%. Also, in the experiment with cancer cell lines, the “Numbers of inhibitory effect” value is listed as 0. Further, the “inhibition effect on different cancer cell lines (in words)” value in the experiment on cancer cell lines is on record as “significant inhibition effect”.

In the case of `CCN(C)C(=O)Oc1cccc([C@H](C)N(C)C)c1` [Rivastigmine tartrate (Exelon), Rivastigmine tartrate], the viability at 10 µM was found to be 118% in [1] (HCT-116, Table 3, drug 10 μM, 72 hours); 103% in [2]; 76.1% in experiment [3] (A-375, Table 3, drug 10 μM, 72 hours); 65.9% in experiment [4] (A549, Table 3, drug 10 μM, 72 hours); 90.1% in [5] (Table 3, drug 10 μM, 72 hours); 63.6% in [6] (Table 3, drug 10 μM, 72 hours). Further, the viability at 10 µM amounted to 83.9% in experiment [7] (Table 3, drug 10 μM, 72 hours); 85.4% in experiment [8] (Table 3, drug 10 μM, 72 hours); 83.6% in [9] (NCI-H1650, Table 3, drug 10 μM, 72 hours); 67.5% in [10] (MCF7, Table 3, drug 10 μM, 72 hours); 93.7% in experiment [11] (HepG2, Table 3, drug 10 μM, 72 hours); 93.8% in experiment [12] (MKN-45, Table 3, drug 10 μM, 72 hours). Moreover, in [13] (Table 3, drug 10 μM, 72 hours), the viability at 10 µM was determined as 85.4%. The “Numbers of inhibitory effect” value in the experiment on cancer cell lines is on record as 0. In the experiment on cancer cell lines, the “inhibition effect on different cancer cell lines (in words)” value is “significant inhibition effect”.

For the compound `COCCCOc1cc(C[C@@H](C[C@H](N)[C@@H](O)C[C@H](C(=O)NCC(C)(C)C(N)=O)C(C)C)C(C)C)ccc1OC` [Aliskiren hemifumarate], the viability at 10 µM in experiment [1] (setting [14]) is 97.2%; in experiment [2], 98.5%; in [3] (setting [15]), 91.2%; in experiment [4] (setting [16]), 92%; in experiment [5] (72 h, Table 3, drug 10 μM), 108%; in experiment [6] (72 h, Table 3, drug 10 μM), 81.8%. Also, the viability at 10 µM in experiment [7] (72 h, Table 3, drug 10 μM) came to 73.3%; in [8] (72 h, Table 3, drug 10 μM) it was 99.5%; in experiment [9] (setting [17]), 79.8%; in [10] (setting [18]), 99.1%; in [11] (setting [19]), 94.2%; in [12] (setting [20]), 85.1%. The viability at 10 µM in experiment [13] (72 h, Table 3, drug 10 μM) was determined as 89%. In the experiment on cancer cell lines, the “Numbers of inhibitory effect” value was 0. The “inhibition effect on different cancer cell lines (in words)” value in the experiment with cancer cell lines was “significant inhibition effect”.

Regarding `CC(=O)Oc1ccc(C(c2ccc(OC(C)=O)cc2)c2ccccn2)cc1` [Bisacodyl], the viability at 10 µM worked out at 122% in [1] (setting [14]); 96% in experiment [2]; 88% in [3] (setting [15]); 66.7% in experiment [4] (setting [16]); 89.2% in [5] (72 h, Table 3, drug 10 μM); 107% in experiment [6] (72 h, Table 3, drug 10 μM). Further, the viability at 10 µM in experiment [7] (72 h, Table 3, drug 10 μM) was found to be 104%; in experiment [8] (72 h, Table 3, drug 10 μM), 85.5%; in [9] (setting [17]), 93.6%; in experiment [10] (setting [18]), 65%; in [11] (setting [19]) it was 100%; in experiment [12] (setting [20]), 132%. Besides, the viability at 10 µM in [13] (72 h, Table 3, drug 10 μM) is 83.7%. For the same compound, in the experiment on cancer cell lines, the “Numbers of inhibitory effect” value came to 0. Besides, in the experiment with cancer cell lines, the “inhibition effect on different cancer cell lines (in words)” value is listed as “significant inhibition effect”.

For `CCCCNc1cc(C(=O)O)cc(S(N)(=O)=O)c1Oc1ccccc1` [Bumetanide], the viability at 10 µM in experiment [1] (setting [14]) came to 66.8%; in experiment [2] it was 98.3%; in experiment [3] (setting [15]), 67.6%; in experiment [4] (setting [16]) it was 88.2%; in experiment [5] (72 h, Table 3, drug 10 μM), 79.5%; in experiment [6] (72 h, Table 3, drug 10 μM) it was 69.9%. Further, the viability at 10 µM in experiment [7] (72 h, Table 3, drug 10 μM) came out at 92.6%; in [8] (72 h, Table 3, drug 10 μM) it was 98.6%; in [9] (setting [17]) it was 105%; in experiment [10] (setting [18]) it was 116%; in experiment [11] (setting [19]), 86%; in experiment [12] (setting [20]) it was 98.8%. The viability at 10 µM in experiment [13] (72 h, Table 3, drug 10 μM) was found to be 72.7%. Besides, the “Numbers of inhibitory effect” value in the experiment with cancer cell lines came to 0. For the same compound, the “inhibition effect on different cancer cell lines (in words)” value in the experiment with cancer cell lines was “significant inhibition effect”.
